# Source: publication PMC5538626, “Structural and functional analysis of the GABARAP interaction motif (GIM)” (EMBO Reports, 2017)
# Ends that are not written are not given here.
# Target: T1, GABARAP R28K (Homo sapiens, UniProt O95166, R28K)
# T1 construct: modified Ub-leader (ubiquitin fusion leader) (N); made in house; host or cells: E. coli NEB T7 Express
# Experiment: ITC titration of PLEKHM1-LIR peptide into GABARAP R28K mutant
# Format: binding
# Method: The chimeric constructs were expressed as a His‐tag fusion protein in E. coli BL21(DE3) cells. The cells were induced with 0.3 mM IPTG at OD600 0.6 for 16 h at 26°C. The cell pellets were lysed using mechanical sonication in lysis buffer (20 mM Tris–HCl pH 9.0, 100 mM NaCl, 10 mM imidazole, supplemented with 0.1% Triton X‐100). The proteins were purified using Ni‐NTA beads (GE Healthcare) and the His‐tag was cleaved using thrombin (Invitrogen) at room temperature for 16 h. The last step was gel filtration chromatography using a Superdex S200/300 GL column (GE Healthcare). The proteins were concentrated using spin concentrators (Vivaspin). For ITC and NMR studies, the non‐labelled and stable isotopes labelled LC3 and GABARAP proteins were obtained based on the protocols described elsewhere 30, 39. Here, E. coli NEB T7 Express culture transformed with corresponding plasmids were grown till OD600 nm = 1.0 and protein expression was induced with 0.2 mM IPTG. The cultures were incubated at 25°C for 8–12 h before cell harvesting. Isolation and purification procedures were similar to those reported in Ref. 22, 40. Before experiments, all proteins and peptides were equilibrated with a buffer containing 50 mM Na2HPO4, 100 mM NaCl at pH 7.0, and supplied with 5 mM protease inhibitor cocktail.
# The protocol for preparation of non‐labelled and ^13C,^15N‐labelled PLEKHM1‐LIR peptide was slightly modified to achieve highest yield of the peptide. The 50 ml M9 culture was inoculated with NEB T7 cell transformed with pET39_Ub63‐PLEKHM1‐LIR plasmid and grown overnight at 37°. The collected cells were resuspended in 2 l of either LB or M9 media contained 1.5 g ^15N‐labelled NH4Cl and 3.0 g of ^13C‐labelled glucose. The cultures were grown at 37° till A(600 nm) = 0.9 and supplied with 1 mM of IPTG to induce Ub63‐PLEKHM1‐LIR overexpression (3 h at 37°). After that cells were harvested by centrifugation, re‐suspended in buffer contained 50 mM Tris–HCl pH = 7.9, 200 mM NaCl, 5% glycerol, 0.1 mg/ml DNase A and 4 mM protease inhibitor cocktail. After cell lysis by French press, debris was removed by centrifugation and clear supernatant was applied onto the column contained Ni‐NTA Sepharose equilibrated with the loading buffer (50 mM Tris–HCl pH = 7.9, 250 mM NaCl, 1% glycerol and 20 mM imidazole). Elution was performed with 400 mM imidazole in the same buffer. An aliquot of pure Ub63‐PLEKHM1‐LIR fractions was further purified by gel filtration on Superdex75 26 × 60 column for control ITC and analytical size exclusion chromatography experiments, remaining fusion protein was processed with the TEV‐protease and PLEKHM1‐LIR peptide was purified to 95% purity by reverse Ni‐NTA chromatography and followed gel filtration on Superdex75 26 × 60 column. Peak maximum of peptide was detected at […] (void volume 115 ml). Pure peptide was concentrated in Amicon concentrators with cut‐off of 3 kDa (> 95% retention).
# All titration experiments were performed at 25°C using a VP‐ITC microcalorimeter (Malvern Instruments Ltd, UK). The ITC data were analysed with the ITC‐Origin 7.0 software with a “one‐site” binding model. The peptides at concentrations of 0.4 mM were titrated into 0.020 mM LC3 and GABARAP proteins in 26 steps. The protein and peptide concentrations were calculated from the UV absorption at 280 nm by NanoDrop spectrophotometer (Thermo Fisher Scientific, DE, USA).
# T1 sequence (O95166 whole entry R28K, the tested form may be a part): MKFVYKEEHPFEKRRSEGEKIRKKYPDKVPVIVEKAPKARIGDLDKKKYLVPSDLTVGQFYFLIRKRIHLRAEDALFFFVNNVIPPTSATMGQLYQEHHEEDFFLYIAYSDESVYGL
sequence,measurement,setting,value
GAMGPQQEDEWVNVQYPD [PLEKHM1‐LIR WT],-T*DS,"25°C, pH 7.0, GABARAP R28K",+2.00 kcal mol-1
same,DG (ΔG),"25°C, pH 7.0, GABARAP R28K",-8.55 kcal/mol
same,DH (ΔH),"25°C, pH 7.0, GABARAP R28K",-10.55 ± 0.1 kcal/mol
same,DS (ΔS),"25°C, pH 7.0, GABARAP R28K",-6.71 cal mol-1 K-1
same,KA,"25°C, pH 7.0, GABARAP R28K",1.9±0.1 *10^6 M-1
same,N,"25°C, pH 7.0, GABARAP R28K",1.05±0.01
same,smaller favorable enthalpy vs wild type GABARAP,within experimental error,0.05 kcal/mol
